Results taken from patent US8481732B2 (Incyte Corporation, priority 2009, dated 2013).

Target: T1, histamine H4 receptor (Homo sapiens, UniProt Q9H3N8)
T1 construct: expressed in transfected cells; host or cells: HEK293SFM cells (membrane preparation)
Experiment: H4 Membrane Binding Assay (3H-Histamine displacement)
Conditions: membranes of recombinant HEK293SFM cells, 10 nM 3H-Histamine, 1.5 hr at room temperature
Outline: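 Radioligand is [3H]-histamine; 1000× unlabeled ligand sets nonspecific binding. Receptor source: membrane pellets from HEK293SFM cells carrying human H4 or other histamine subtypes (human H1–H3, mouse H4), in 50 mM Tris-HCl pH 7.5. Filtration through PEI-treated GF/B filters, then scintillation counting.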

T1 sequence (Q9H3N8 whole entry): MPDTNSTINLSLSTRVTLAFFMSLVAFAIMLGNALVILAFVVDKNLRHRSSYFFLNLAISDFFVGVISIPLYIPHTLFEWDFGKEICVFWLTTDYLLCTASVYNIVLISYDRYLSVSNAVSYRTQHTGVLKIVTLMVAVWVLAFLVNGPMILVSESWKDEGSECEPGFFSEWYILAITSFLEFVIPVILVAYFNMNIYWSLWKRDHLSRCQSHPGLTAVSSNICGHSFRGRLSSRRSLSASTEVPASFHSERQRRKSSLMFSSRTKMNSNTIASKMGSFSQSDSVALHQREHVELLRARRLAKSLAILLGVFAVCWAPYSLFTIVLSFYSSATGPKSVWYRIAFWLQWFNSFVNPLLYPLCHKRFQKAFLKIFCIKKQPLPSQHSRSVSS

## CN1CCN(c2nc(N)nc3cc(C(=O)N[C@@H](Cc4ccc(-c5cncc(C#N)c5)cc4)C(=O)N(C)C)ccc23)CC1 [Example 156, 2-Amino-N-[(1S)-1-[4-(5-cyanopyridin-3-yl)benzyl]-2-(dimethylamino)-2-oxoethyl]-4-(4-methylpiperazin-1-yl)quinazoline-7-carboxamide]
  IC50: 41 nM

## CN1CCN(c2cc(-c3ccc4c(c3)CN(C(=O)NC3CCCc5ccccc53)CC4)nc(N)n2)CC1 (stereo not shown) [Example 83, 7-[2-Amino-6-(4-methylpiperazin-1-yl)pyrimidin-4-yl]-N-(1,2,3,4-tetrahydronaphthalen-1-yl)-3,4-dihydroisoquinoline-2(1H)-carboxamide]
  IC50: 38 nM

## CN1CCN(c2cc(-c3cc4c(cc3F)CCN(C(=O)Nc3ccc(Cl)cc3)C4)nc(N)n2)CC1 [Example 75, 7-[2-Amino-6-(4-methylpiperazin-1-yl)pyrimidin-4-yl]-N-(4-chlorophenyl)-6-fluoro-3,4-dihydroisoquinoline-2(1H)-carboxamide]
  IC50: 44 nM

## COC(=O)NC(CC(=O)N1CCc2ccc(-c3cc(N4CCN(C)CC4)nc(N)n3)cc2C1)C1CCCCC1 (stereo not shown) [Example 114, Methyl{3-[7-[2-amino-6-(4-methylpiperazin-1-yl)pyrimidin-4-yl]-3,4-dihydroisoquinolin-2(1H)-yl]-1-cyclohexyl-3-oxopropyl}carbamate]
  IC50: 109 nM

## COC(=O)c1ccc(COc2ccc3c(c2)C(NC(=O)c2ccc4c(N5CCN(C)CC5)nc(N)nc4c2)CCC3)cc1 (stereo not shown) [Example 206, Methyl 4-((8-(2-amino-4-(4-methylpiperazin-1-yl)quinazoline-7-carboxamido)-5,6,7,8-tetrahydronaphthalen-2-yloxy)methyl)benzoate]
  IC50: 24 nM

## CN1CCN(c2cc(-c3ccc4c(c3)CN(C(=O)Nc3ccc(C#N)nc3)CC4)nc(N)n2)CC1 [Example 44, 7-[2-Amino-6-(4-methylpiperazin-1-yl)pyrimidin-4-yl]-N-(6-cyanopyridin-3-yl)-3,4-dihydroisoquinoline-2(1H)-carboxamide]
  IC50: 118 nM

## CN1CCN(c2cc(-c3ccc4c(c3)CN(C(=O)OC3CCOC3)CC4)nc(N)n2)CC1 (stereo not shown) [Example 79, Tetrahydrofuran-3-yl 7-[2-amino-6-(4-methylpiperazin-1-yl)pyrimidin-4-yl]-3,4-dihydroisoquinoline-2(1H)-carboxylate]
  IC50: 364 nM

## COc1ccc(-c2ccc(CC(NC(=O)c3ccc4c(N5CCN(C)CC5)nc(N)nc4c3)C(=O)N(C)C)cn2)cc1 (stereo not shown) [Example 164, 2-Amino-N-(-2-(dimethylamino)-1-{[6-(4-methoxyphenyl)pyridin-3-yl]methyl}-2-oxoethyl)-4-(4-methylpiperazin-1-yl)quinazoline-7-carboxamide]
  IC50: 57 nM

## CN1CCN(c2cc(-c3ccc4c(c3)CN(C(=O)NC(Cc3ccccc3)C(=O)N(C)C)CC4)nc(N)n2)CC1 (stereo in doubt) [Example 60, 7-[2-Amino-6-(4-methylpiperazin-1-yl)pyrimidin-4-yl]-N-[(1R)-1-benzyl-2-(dimethylamino)-2-oxoethyl]-3,4-dihydroisoquinoline-2(1H)-carboxamide]
  IC50: 497 nM

## CN1CCN(c2cc(-c3ccc4c(c3)CN(C(=O)N3CCCC3)CC4)nc(N)n2)CC1 [Example 9, 4-(4-Methylpiperazin-1-yl)-6-[2-(pyrrolidin-1-ylcarbonyl)-1,2,3,4-tetrahydroisoquinolin-7-yl]pyrimidin-2-amine]
  IC50: 301 nM

## COC(=O)c1ccccc1Oc1cccc(CNC(=O)c2ccc3c(N4CCN(C)CC4)nc(N)nc3c2)c1 [Example 191, Methyl 2-{3-[({[2-amino-4-(4-methylpiperazin-1-yl)quinazolin-7-yl]carbonyl}amino)methyl]phenoxy}benzoate]
  IC50: 20 nM

## CNC(=O)c1ccc(-c2ccc(N3CCc4ccc(-c5cc(N6CCN(C)CC6)nc(N)n5)cc4C3)nc2)cc1 [Example 19, 4-{6-[7-[2-Amino-6-(4-methylpiperazin-1-yl)pyrimidin-4-yl]-3,4-dihydroisoquinolin-2(1H)-yl]pyridin-3-yl}-N-methylbenzamide]
  IC50: 508 nM

## CC(Cc1ccc(Oc2ccccc2)cc1)NC(=O)c1ccc2c(N3CCN(C)CC3)nc(N)nc2c1 (stereo not shown) [Example 142, 2-Amino-N-[1-methyl-2-(4-phenoxyphenyl)ethyl]-4-(4-methylpiperazin-1-yl)quinazoline-7-carboxamide]
  IC50: 34 nM

## CN1CCN(c2cc(-c3ccc4c(c3)CN(C(=O)c3ccc(Cl)cc3)CC4)nc(N)n2)CC1 [Example 2, 4-[2-(4-Chlorobenzoyl)-1,2,3,4-tetrahydroisoquinolin-7-yl]-6-(4-methylpiperazin-1-yl)pyrimidin-2-amine]
  IC50: 172 nM

## COC(=O)[C@H](Cc1ccc(OC(=O)NC(C)C)cc1)NC(=O)c1ccc2c(N3CCN(C)CC3)nc(N)nc2c1 [Example 135, (S)-Methyl 2-(2-amino-4-(4-methylpiperazin-1-yl)quinazoline-7-carboxamido)-3-(4-(isopropylcarbamoyloxy)phenyl)propanoate]
  IC50: 70 nM

## CN1CCN(c2cc(-c3ccc4c(c3)CN(C(=O)Nc3nc(C(F)(F)F)cs3)CC4)nc(N)n2)CC1 [Example 50, 7-[2-Amino-6-(4-methylpiperazin-1-yl)pyrimidin-4-yl]-N-[4-(trifluoromethyl)-1,3-thiazol-2-yl]-3,4-dihydroisoquinoline-2(1H)-carboxamide]
  IC50: 58 nM

## CN1CCN(c2cc(-c3ccc4c(c3)CN(C(=O)C3CCCCC3)CC4)nc(N)n2)CC1 [Example 105, 4-[2-(Cyclohexylcarbonyl)-1,2,3,4-tetrahydroisoquinolin-7-yl]-6-(4-methylpiperazin-1-yl)pyrimidin-2-amine]
  IC50: 81 nM

## CC(Cc1cc2ccccc2o1)NC(=O)c1ccc2c(N3CCN(C)CC3)nc(N)nc2c1 (stereo not shown) [Example 141, 2-Amino-N-[2-(1-benzofuran-2-yl)-1-methylethyl]-4-(4-methylpiperazin-1-yl)quinazoline-7-carboxamide]
  IC50: 71 nM

## CN1CCN(c2nc(N)nc3cc(C(=O)NCc4cccc(Oc5nccc6ccccc56)c4)ccc23)CC1 [Example 181, 2-Amino-N-[3-(isoquinolin-1-yloxy)benzyl]-4-(4-methylpiperazin-1-yl)quinazoline-7-carboxamide]
  IC50: 16 nM
